Data reported in patent US4876260A, “Oxathiolanes” (State of Israel, Israel Institute of Biological Research, priority 1988, dated 1989).
Several values for one entry are separate records, joined by “and”; a condition that tells them apart may be missing. Identical values can stand only once. Entries after “also recorded” stand apart in the source; their conditions may differ. Like-named read-outs stand apart in the source and are kept apart here.

What was measured:
[1] = target: muscarinic receptors (3H-QNB sites, M1 and M2, forebrain); assay type: binding, rat; conditions: (b) forebrain
[2] = target: T1, M1 muscarinic receptors (3H-PZ sites, frontal cortex) (Rattus norvegicus, UniProt P08482); experiment: Displacement of 3H-PZ from rat frontal cortex homogenate; assay type: binding; conditions: for a':c', Ki(3H-PZ):Ki(3H-CD): (g) frontal cortex ratio
T1 sequence (P08482 1-460): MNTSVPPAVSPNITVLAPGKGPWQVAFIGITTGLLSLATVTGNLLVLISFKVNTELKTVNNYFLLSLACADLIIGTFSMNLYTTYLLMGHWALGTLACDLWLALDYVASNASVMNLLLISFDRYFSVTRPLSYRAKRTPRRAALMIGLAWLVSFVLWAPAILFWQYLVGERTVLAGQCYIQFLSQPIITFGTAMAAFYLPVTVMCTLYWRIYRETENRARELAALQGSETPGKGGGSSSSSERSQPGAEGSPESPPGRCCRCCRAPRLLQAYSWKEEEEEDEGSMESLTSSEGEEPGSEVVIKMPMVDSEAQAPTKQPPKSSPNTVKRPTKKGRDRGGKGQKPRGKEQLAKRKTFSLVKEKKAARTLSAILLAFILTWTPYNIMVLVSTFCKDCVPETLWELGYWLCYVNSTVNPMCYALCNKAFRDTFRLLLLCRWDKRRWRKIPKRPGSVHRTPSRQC

[3] = target: muscarinic receptors (3H-CD sites, M1 and M2, forebrain); experiment: Displacement of 3H-cis-dioxolane (3H-CD, non-selective M1 and M2 agonist) from rat forebrain homogenate; assay type: binding
[4] = target: muscarinic receptors (3H-QNB sites, frontal cortex); assay type: binding, rat; conditions: (b') frontal cortex
[5] = target: muscarinic receptors (3H-CD sites, frontal cortex); experiment: Displacement of 3H-CD from rat frontal cortex homogenate; assay type: binding; conditions: (c') frontal cortex
all muscarinic receptors = conditions: cited from earlier work
[6] = test system: muscarinic receptors (3H-QNB sites, cerebellum, mainly M2); experiment: biochemical; assay type: binding, rat; conditions: for b':b": (k) Ki(3H-QNB) frontal cortex : Ki(3H-QNB) cerebellum
[7] = target: T2, muscarinic receptors (3H-QNB sites, cerebellum, mainly M2) (Rattus norvegicus, UniProt P10980); experiment: biochemical; assay type: binding; conditions: Ki(3H-QNB), (b") cerebellum
T2 sequence (P10980 1-466): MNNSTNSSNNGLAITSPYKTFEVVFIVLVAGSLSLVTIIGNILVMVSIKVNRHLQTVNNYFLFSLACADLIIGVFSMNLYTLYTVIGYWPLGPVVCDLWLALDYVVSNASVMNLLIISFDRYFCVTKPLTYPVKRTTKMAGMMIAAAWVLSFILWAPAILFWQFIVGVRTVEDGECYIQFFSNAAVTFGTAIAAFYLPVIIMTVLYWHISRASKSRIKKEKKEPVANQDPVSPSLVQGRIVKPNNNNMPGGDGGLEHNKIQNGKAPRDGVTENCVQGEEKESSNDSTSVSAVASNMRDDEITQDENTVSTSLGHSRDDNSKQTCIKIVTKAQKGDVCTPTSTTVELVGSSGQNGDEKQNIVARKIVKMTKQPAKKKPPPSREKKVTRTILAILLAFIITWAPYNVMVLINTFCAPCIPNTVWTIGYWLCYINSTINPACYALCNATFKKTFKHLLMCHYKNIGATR

[8] = target: T3, M1 muscarinic receptors (3H-PZ sites, forebrain) (Rattus norvegicus, UniProt P08482); experiment: Displacement of 3H-Pirenzepine (3H-PZ, selective M1 antagonist) from rat forebrain homogenate; assay type: binding
T3 sequence (P08482 1-460): T1 sequence (P08482 1-460)

mice = experiment: Pharmacodynamic profile and general toxicity in mice; assay type: in vivo, CD-1 mice
Method: Male white mice of the CD-1 strain supplied by Charles River Ltd. (U.K.) were used throughout. An acclimatization period of at least three days was allowed between arrival and commencement of a particular experimental series. The animals were fed a complete commercial pelleted rodent diet without restriction during the acclimatization and study periods. Animals had free access to tap water. Body weights during testing were mostly within 20-28 g.
Test materials were prepared as aqueous solutions in physiological saline (0.9% NaCl), up to a maximum concentration of 10 mg./ml. All materials were freshly prepared on the morning prior to each dosing session. Dosages were expressed gravimetrically (mg./kg.), in terms of the materials as received.
Groups of mice (mostly n=5) received either i.v. or oral administration of the test materials at various dose levels. Dose volumes appropriate for respective dose levels selected, were determined for each animal according to body weights on the day of dosing. Any behavioral changes occurring during one to two hours after administration, as well as incidence of death up to 24 hours after dosing were recorded.

[9] = test system: isolated guinea-pig ileum; experiment: Contraction of isolated guinea-pig ileum preparation; conditions: listed as AF122A
Source text: (§1) From this Table, it appears that compounds (III) were not so effective in contracting the guinea pig ileum preparation.

[10] = test system: ACh-induced contractions of guinea-pig ileum; experiment: Blocking of ACh-induced contractions of isolated guinea-pig ileum; conditions: listed as AF122A
Source text: as §1

[11] = 25 mg/kg i.v., listed as (±)-III AF122A
[12] = 100 mg/kg p.o., listed as (±)-III AF122A
[13] = 200 mg/kg p.o., listed as (±)-III AF122A

In the case of `O=C1CCCN1CC#CCN1CCCC1` [compound 1, Oxotremorine], the Ki [1] is reported as 2100 ± 300 nM, the “a':b', Ki(3H-PZ):Ki(3H-QNB)” value ([2]; (f) frontal cortex ratio) is reported as 0.1 and the “a':c', Ki(3H-PZ):Ki(3H-CD)” value [2] is reported as 137.5. The Ki ([2]; Ki(3H-PZ)) was 220 ± 70 nM, the Ki ([3]; (c) forebrain, * in M × 10^-10) was 0.96 ± 0.42 nM and the Ki [4] was 2200 ± 300 nM. For the same compound, the Ki [5] was 1.6 ± 0.4 nM, the “affinity towards all muscarinic receptors (in words)” value (all muscarinic receptors) was “greater than those of the weaker agonists McN-A-343 or compound #3” and the “a:b"” value ([6]; (h) Ki(3H-PZ) forebrain : Ki(3H-QNB) cerebellum) was 0.86. The “b:b"” value ([6]; (j) Ki(3H-QNB) forebrain : Ki(3H-QNB) cerebellum) was 3.00, the “b':b"” value [6] was 1.69 and the “order of M1 versus M2 selectivity, IC50 (FB):IC50 (CER) or IC50 (frontal cortex):IC50 (CER)” value ([6]; FB=forebrain, CER=cerebellum) was “compound #4>compound #3>oxotremorine”. For the same compound, the Ki [7] was 700 nM and 1310 nM, the “order of the ratios Ki(3H-PZ):Ki(3H-CD)” value [8] was “oxotremorine >McN-A-343>compound # 3; also recorded: weakest relative affinity towards M1 binding sites” and the “a:b, Ki(3H-PZ):Ki(3H-QNB)” value ([8]; (d) forebrain ratio) was 0.29. The “order of the ratios Ki(3H-PZ):Ki(3H-QNB)” value ([8]; forebrain, among oxotremorine, McN-A-343, compound #3) was “McN-A-343 >compound #3>oxotremorine; also recorded: relatively stronger than McN-A-343 and compound #3”.

For `CC1OCC2(CN3CCC2CC3)S1` (stereo not shown) [compound 11, 2-methylspiro(1,3-oxathiolan-4,3')quinuclidine], the “a':b', Ki(3H-PZ):Ki(3H-QNB)” value [2] was 0.09, the Ki ([2]; (a') frontal cortex, read-out: Ki(3H-PZ)) was 840 ± 30 nM and the “a':c', Ki(3H-PZ):Ki(3H-CD)” value [2] was 1.0. The “Analgesia (nonresponsiveness to tail pinch), No. affected/total treated” value (mice; 10 mg/kg i.v.) was 2/5, the “Vocalization, No. affected/total treated” value (mice; 10 mg/kg i.v.) was 2/5 and the “Mortality, No. dead/total treated” value (mice; 10 mg/kg i.v., listed as (±)-III AF122A) was 0/5. The “Vocalization, No. affected/total treated” value (mice; 25 mg/kg i.v.) was 3/6, the “Analgesia (nonresponsiveness to tail pinch), No. affected/total treated” value (mice; [11]) was 4/5 and the “Convulsive seizures, No. affected/total treated” value (mice; [11]) was 1/6. The “Exophthalmus, No. affected/total treated” value (mice; [11]) was 3/6, the “Mortality, No. dead/total treated” value (mice; [11]) was 1/6 and the “Respiratory distress, No. affected/total treated” value (mice; [11]) was 4/6. For the same compound, the “Tremors, No. affected/total treated” value (mice; [11]) was 3/6, the “Mortality, time after drug administration” value (shortened to “Mortality, time”) (mice; 25 mg/kg i.v., m = minutes) was 1 m and the “Convulsive seizures, No. affected/total treated” value (mice; 50 mg/kg i.v.) was 2/2. The “Mortality, No. dead/total treated” value (mice; 50 mg/kg i.v.) was 2/2, the “Mortality, time” value (mice; 50 mg/kg i.v.) was 5 s and the “Mortality, No. dead/total treated” value (mice; 50 mg/kg p.o.) was 0/5. The “Mortality, No. dead/total treated” value (mice; 100 mg/kg i.v.) was 2/2, the “Mortality, time” value (mice; 100 mg/kg i.v., immed = immediately) was “immed” and the “Mortality, No. dead/total treated” value (mice; [12]) was 0/5. The “Tremors, No. affected/total treated” value (mice; [12]) was 5/5, the “Mortality, time” value (mice; 200 mg/kg p.o.) was 30 s and the “Convulsive seizures, No. affected/total treated” value (mice; [13]) was 5/5. The “Mortality, No. dead/total treated” value (mice; [13]) was 5/5, the “Tremors, No. affected/total treated” value (mice; [13]) was 5/5 and the Ki ([3]; Table 2B column (c'), footnote *forebrain) was 750 nM. The Ki [4] was 9700 ± 2300 nM, the “Contraction of guinea pig ileum (in words)” value [9] was “did not produce any significant contractions in the concentration range within which it binds to the brain receptors” and the “b':b"” value [6] was 0.49. The Ki [7] was 19800 ± 6100 nM, the “M1 selectivity (in words)” value ([8]; from Tables 2A, 2B, 2C) was “high M1 selectivity” and the “Effect on ACh-induced contractions (in words)” value [10] was “perturbed the ACh-induced contractions when applied in relatively high concentrations”.
